Experimental data taken from patent US9556221B2, “N-acetyl amino acid ESTER derivatives of betulin and preparation method thereof” (Northeast Forestry University, priority 2014, dated 2017).

Assays:
Assay type in all cases: cell-based
[1] = system: Human colon tumor cell lines HT29; assay: MTT assay, in vitro anti-tumor activity screening, HT29; details: HT-29, HT29 colon tumor cell line, read-out: half inhibitory concentration IC50, HT29
From the text: (§1) The present invention also relates to the application of the N-acetyl amino acid ester derivatives of betulin for the preparation of anti-tumor drugs.
(§2) Human colon tumor cell lines HT29, pancreatic cancer cell lines MPC2 and ovarian cancer cell lines MDAH2774 were selected to determine the half inhibitory concentrations (IC50s) of the N-acetyl amino acid ester derivatives of betulin, betulinic acid and betulin, and the results are shown in Table 2.

[2] = system: ovarian cancer cell lines MDAH2774; assay: MTT assay, in vitro anti-tumor activity screening, MDAH2774; details: Homo sapiens, MDAH 2774, MDAH2774 ovarian cancer cell line, read-out: half inhibitory concentration IC50, MDAH2774
From the text: as §1, §2

[3] = system: pancreatic cancer cell lines MPC2; assay: MTT assay, in vitro anti-tumor activity screening, MPC2; details: Homo sapiens, MPC2 pancreatic cancer cell line, read-out: half inhibitory concentration IC50, MPC2
From the text: as §1, §2

| Structure (SMILES) | IC50 [1] [µM] | IC50 [2] [µM] | IC50 [3] [µM] |
| --- | --- | --- | --- |
| C=C(C)[C@@H]1CC[C@]2(CO)CC[C@]3(C)[C@H](CC[C@@H]4[C@@]5(C)CC[C@H](O)C(C)(C)[C@@H]5CC[C@]43C)[C@@H]12 [Betulin, Lup-20(29)-ene-3β,28-diol] | > 100 | > 100 | > 100 |
| C=C(C)[C@@H]1CC[C@]2(COC(=O)C(NC(C)=O)C(C)C)CC[C@]3(C)C(CC[C@@H]4[C@@]5(C)CC[C@H](O)C(C)(C)[C@@H]5CC[C@]43C)[C@@H]12 (some centres unmarked) [YWZ-003] | 14.1 ± 0.83 | 10.9 ± 0.76 | 11.4 ± 0.89 |
| C=C(C)[C@@H]1CC[C@]2(COC(=O)C(C)NC(C)=O)CC[C@]3(C)C(CC[C@@H]4[C@@]5(C)CC[C@H](O)C(C)(C)[C@@H]5CC[C@]43C)[C@@H]12 (some centres unmarked) [YWZ-002] | 6.58 ± 0.24 | 10.6 ± 0.62 | 4.24 ± 0.23 |
| C=C(C)[C@@H]1CC[C@]2(COC(=O)C(CC(C)C)NC(C)=O)CC[C@]3(C)C(CC[C@@H]4[C@@]5(C)CC[C@H](O)C(C)(C)[C@@H]5CC[C@]43C)[C@@H]12 (some centres unmarked) [YWZ-005] | 18.1 ± 1.51 | 1.38 ± 0.04 | 19.7 ± 0.83 |
| C=C(C)[C@@H]1CC[C@]2(COC(=O)C(NC(C)=O)C(C)CC)CC[C@]3(C)C(CC[C@@H]4[C@@]5(C)CC[C@H](O)C(C)(C)[C@@H]5CC[C@]43C)[C@@H]12 (some centres unmarked) [YWZ-006] | 15 ± 1.31 | 7.26 ± 0.1 | 10.2 ± 0.69 |
| C=C(C)[C@@H]1CC[C@]2(COC(=O)C3CCCN3C(C)=O)CC[C@]3(C)C(CC[C@@H]4[C@@]5(C)CC[C@H](O)C(C)(C)[C@@H]5CC[C@]43C)[C@@H]12 (some centres unmarked) [YWZ-004] | 8.88 ± 0.62 | 2.13 ± 0.05 | 5.32 ± 0.21 |
| C=C(C)[C@@H]1CC[C@]2(C(=O)O)CC[C@]3(C)[C@H](CC[C@@H]4[C@@]5(C)CC[C@H](O)C(C)(C)[C@@H]5CC[C@]43C)[C@@H]12 [Betulinic acid, reference compound] | – | 39.5 ± 2.19 | 38.6 ± 2.91 |
